Experimental data published in patent US9102635B2, “Substituted bisphenyl butanoic acid derivatives as NEP inhibitors with improved in vivo efficacy” (NOVARTIS AG, priority 2013, dated 2015).

How the values were obtained:
[1] = target: T1, recombinant human neutral endopeptidase (Homo sapiens, UniProt P08473); assay: in vitro inhibition of recombinant human neutral endopeptidase (fluorescence lifetime assay); format: biochemical; details: 1 hour pre-incubation, 1 hour reaction, room temperature, pH 7.4; read-out: Human NEP IC50
T1 construct: made in house; host or cells: insect cells
Text: The activity of a compound according to the present invention can be assessed by the following in vitro and in vivo methods and/or by the following in vitro and in vivo methods well-described in the art. See Doering K, Meder G, Hinnenberger M, Woelcke J, Mayr L M, Hassiepen U, (2009) “A fluorescence lifetime-based assay for protease inhibitor profiling on human kallikrein 7”, Biomol Screen, January; 14(1):1-9.
In particular, the in vitro inhibition of recombinant human neutral endopeptidase can be determined as follows:
Recombinant human neutral endopeptidase (expressed in insect cells and purified using standard methods, final concentration 7 pM) is pre-incubated with test compounds at various concentrations for 1 hour at room temperature in 10 mM sodium phosphate buffer at pH 7.4, containing 150 mM NaCl and 0.05% (w/v) CHAPS. The enzymatic reaction is started by the addition of a synthetic peptide substrate Cys(PT14)-Arg-Arg-Leu-Trp-OH to a final concentration of 0.7 μM. Substrate hydrolysis leads to an increase in fluorescence lifetime (FLT) of PT14 measured by means of a FLT reader as described by Doering et al. (2009) as referenced supra. The effect of the compound on the enzymatic activity was determined after 1 hour (t=60 min) incubation at room temperature. […]

[2] = target: T2, peripheral NEP (Rattus norvegicus, UniProt P07861); assay: ANP potentiation model in conscious rats (plasma ANP after oral dose); format: in vivo, Wistar Han (WH) rats; details: for PANP % of baseline: 0- to 8-hr time-weighted average of plasma ANP, ANP infusion 450 ng/kg/min i.v.
T2 construct: from tissue; host or cells: whole animal: adult male Wistar Han rats (Charles River Labs), peripheral tissues
T2 sequence (P07861 1-750): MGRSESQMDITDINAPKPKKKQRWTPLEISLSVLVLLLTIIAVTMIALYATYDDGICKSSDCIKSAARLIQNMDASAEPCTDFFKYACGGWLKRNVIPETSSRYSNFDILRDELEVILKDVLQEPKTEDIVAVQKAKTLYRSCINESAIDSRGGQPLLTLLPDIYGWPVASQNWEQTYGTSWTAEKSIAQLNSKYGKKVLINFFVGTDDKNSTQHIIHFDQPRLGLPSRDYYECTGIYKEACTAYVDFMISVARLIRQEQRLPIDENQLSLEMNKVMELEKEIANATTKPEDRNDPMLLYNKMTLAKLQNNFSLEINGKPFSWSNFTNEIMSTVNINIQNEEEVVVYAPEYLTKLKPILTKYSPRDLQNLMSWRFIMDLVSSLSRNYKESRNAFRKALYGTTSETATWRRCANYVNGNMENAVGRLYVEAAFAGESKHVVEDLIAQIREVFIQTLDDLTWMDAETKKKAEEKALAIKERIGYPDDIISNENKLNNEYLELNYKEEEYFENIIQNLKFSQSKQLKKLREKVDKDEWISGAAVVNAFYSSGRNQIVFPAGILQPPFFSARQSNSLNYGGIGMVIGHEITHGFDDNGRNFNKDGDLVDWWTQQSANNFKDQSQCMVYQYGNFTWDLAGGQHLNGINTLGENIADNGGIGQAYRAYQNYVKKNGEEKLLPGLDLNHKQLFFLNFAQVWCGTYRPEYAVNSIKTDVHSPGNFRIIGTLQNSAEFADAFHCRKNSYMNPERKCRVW
Experimental: In particular, the in vivo inhibition of recombinant human neutral endopeptidase can be determined as follows:
Thus, the potentiation of plasma ANP was used as an index of the extent and duration of inhibition of peripheral NEP by the orally administered compounds.
They were housed on a 12-hr light/dark cycle (light: 6 am to 6 pm) at temperature and relative humidity set points of 72° F. and 55%, respectively. […] In this case, the evening before the experiment (˜5 pm) all but two of the rat's chow pellets were removed. On the morning of the experiment, any remaining food was removed. […] Food was returned at the experiment terminus.
Rats were surgically instrumented with catheters to allow collection of arterial blood samples and intravenous (i.v.) administration of ANP. Rats were anesthetized and maintained in a surgical plane of anesthesia with isoflurane (2% in 100% oxygen). Ophthalmic lubricant was applied to each eye to prevent corneal irritation. Meloxicam (0.2 mg/kg s.c.) was administered for analgesia. If necessary for pain management, a second injection of meloxicam was administered on the first post-operative day. Also, a dose of penicillin G (50,000 U/kg i.m.) was administered pre-operatively to prevent infection.
Under aseptic surgical conditions, a femoral artery and vein were isolated and catheters inserted. Catheters consisted of a ˜55-cm length of Tygon (PVC) Microbore tubing (0.020″, 0.060″ O.D.) bonded with cyclohexanone to a 4.5-cm length of polyurethane (0.012″ I.D., 0.025″ O.D., Micro-Renathane type MRE-025, Braintree Scientific, Inc., Braintree, Mass.) tubing. The catheters were tunneled subcutaneously and exteriorized in the mid-dorsal thoracic/abdominal region. Catheters exited through a subcutaneously anchored tether/swivel system which allowed the animal to move unrestrained in a specialized Plexiglas cage with perforated solid flooring. Catheters were flushed with sterile 0.9% saline and locked with 200 U/mL heparin in sterile 0.9% saline after the surgery was completed.
The rats were allowed to recover for at least one week before being studied while conscious and unrestrained. Rats were infused intravenously (450 ng/kg/min) with rat ANP (ANP (1-28), Product #14-5-41, American Peptide Company, Inc., Sunnyvale, Calif.). After 1 hr of ANP infusion, rats were treated by oral gavage with 1 mL/kg of vehicle (0.5% methylcellulose+0.1% Tween 80) or a selected dose of NEP inhibitor. ANP infusion was continued for an additional 8 hr. Arterial blood samples (0.20 mL) were withdrawn from the femoral arterial cannulas at various times (baseline or time 0, 0.25, 0.5, 1, 2, 4, 6, and 8 hr) into a collection tube containing 0.004 mL EDTA/protease inhibitor (PI) cocktail. Blood samples were centrifuged at 4° C. and 20K g to separate plasma. Plasma samples were aliquoted and frozen (−70° C.) for later analysis of plasma ANP (PANP) levels. The O— to 8-hr time-weighted averages of the PANP concentrations expressed as a percent of the baseline (time 0) PANP values were used to generate dose-response relationships.
The blood collection cocktail consisted of broad-spectrum serine and cysteine PIs and EDTA. […] It also anticoagulated the blood.
The frozen plasma sample was thawed on ice and 10 μL of plasma was diluted 1:10 in 1× assay buffer supplied with the kit. Ten μL of the diluted sample was then assayed. The manufacturer's instructions were followed for the assay protocol (total volume per well was expanded to 50 μl with 1× assay buffer). Absorbance was read (Molecular Devices SpectraMax Paradigm Multi-Mode Detection Platform) at 450 nm within ten minutes of the assay termination.

T1 sequence (P08473 whole entry): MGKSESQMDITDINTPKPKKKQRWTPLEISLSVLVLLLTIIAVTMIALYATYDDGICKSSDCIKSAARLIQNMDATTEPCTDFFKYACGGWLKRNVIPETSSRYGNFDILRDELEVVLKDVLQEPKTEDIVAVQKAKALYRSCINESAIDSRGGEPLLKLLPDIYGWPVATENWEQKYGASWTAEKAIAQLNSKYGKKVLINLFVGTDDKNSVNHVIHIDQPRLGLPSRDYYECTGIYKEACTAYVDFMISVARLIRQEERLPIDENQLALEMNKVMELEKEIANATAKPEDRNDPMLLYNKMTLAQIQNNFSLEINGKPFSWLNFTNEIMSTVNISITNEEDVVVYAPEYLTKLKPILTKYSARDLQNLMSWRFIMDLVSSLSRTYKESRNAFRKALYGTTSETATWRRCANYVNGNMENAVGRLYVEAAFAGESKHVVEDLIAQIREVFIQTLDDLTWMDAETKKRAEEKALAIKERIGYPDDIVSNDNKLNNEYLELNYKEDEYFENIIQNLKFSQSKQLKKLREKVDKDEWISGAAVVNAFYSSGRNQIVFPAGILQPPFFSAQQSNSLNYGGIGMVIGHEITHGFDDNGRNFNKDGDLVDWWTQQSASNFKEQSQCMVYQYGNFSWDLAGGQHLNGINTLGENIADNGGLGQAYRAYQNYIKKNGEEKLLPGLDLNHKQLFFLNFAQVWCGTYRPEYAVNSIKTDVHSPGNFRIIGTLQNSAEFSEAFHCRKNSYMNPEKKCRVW

Compound | IC50 [1] | in vivo efficacy compared to Example 5-46 of WO2010/136493 ([2]; ANP potentiation model, oral) | PANP % of baseline ([2]; dose 1 mg/kg oral gavage) | PANP % of baseline ([2]; dose 3 mg/kg oral gavage) | PANP % of baseline ([2]; dose 10 mg/kg oral gavage) | PANP % of baseline ([2]; dose 30 mg/kg oral gavage) | PANP % of baseline ([2]; dose 100 mg/kg oral gavage)
COc1ccc(F)cc1-c1ccc(C[C@H](CC(=O)O)NC(=O)c2n[nH]c(=O)o2)cc1 [Example 1, (R)-4-(5′-fluoro-2′-methoxy-[1,1-biphenyl]-4-yl)-3-(5-oxo-4,5-dihydro-1,3,4-oxadiazole-2-carboxamido)butanoic acid] | 0.06 nM | superior efficacy | 141 % of baseline | 183 % of baseline | 238 % of baseline |  | 
O=C(O)C[C@@H](Cc1ccc(-c2cccc(Cl)c2)cc1)NC(=O)c1n[nH]c(=O)o1 [Example 5-46 of WO2010/136493, reference compound] |  |  |  | 137 % of baseline | 126 % of baseline | 185 % of baseline | 254 % of baseline
